≈ marks a conversion by molar mass, not a printed value. Like-named read-outs stand apart in the source and are kept apart here.
Experiments:
[1] = system: Salmonella enteritidis IID 604; assay: In vitro antibacterial activity, MIC (standard strain); type: cell-based; settings: Salmonella enterica
K. pneumoniae KY(GN)6445 = assay: as above; type: cell-based
B. fragilis 0558 = assay: as above; type: cell-based; settings: Bacteroides fragilis, 0558
Shigella sonnei IID 969 = assay: as above; type: cell-based; settings: IID969, Shigella sonnei IID 969, 10^6 cells/ml
Experimental: The in vitro antibacterial activity has been investigated, the minimun inhibitory concentration (MIC) was determined in accordance with the method recommended by Japan Society of Chemotherapy.

[2] = system: Bacillus subtilis PCI 219; assay: as above; type: cell-based; settings: Bacillus subtilis, PCI219
[3] = system: Proteus vulgaris IFO 3167; assay: as above; type: cell-based; settings: Proteus vulgaris, IFO3167
C. ramosum = assay: as above; type: cell-based; settings: Thomasclavelia ramosa
S. pneumoniae S-4288 [4] = assay: In vivo antibacterial activity against systemic infection in mice; set-up: species or system mice (ICR-S); settings: Streptococcus pneumoniae
Experimental: (§1) Experiment 2 In vivo antibacterial activity against systemic infection in mice (ICR-S)
(§2) The infections were produced by intraperitoneal infection of a suspension of the bacterial culture corresponding to the germ studied. The product was administered orally at 1 hour after the infection. The 50% effective dose (ED50) which protects 50% of the animals from death caused by the infection was determined from the relation between dosage and survival rate.

S. aureus Smith = assay: as above; set-up: species or system mice (ICR-S); settings: Staphylococcus aureus, po, 1 h;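 note: ED50 in mg/kg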
Experimental: as §1, §2

P. aeruginosa IID 1210 = assay: as above; set-up: species or system mice (ICR-S); settings: Pseudomonas aeruginosa, IID1210, po, 1 h;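 note: ED50 in mg/kg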
Experimental: as §1, §2

[5] = system: Klebsiella pneumoniae I-220S; assay: In vitro antibacterial activity, MIC (standard strain); type: cell-based; settings: Klebsiella pneumoniae
[6] = system: Citrobacter freundii IID 976; assay: as above; type: cell-based; settings: Citrobacter freundii, IID976
[7] = system: Pseudomonas aeruginosa V-1; assay: as above; type: cell-based; settings: Pseudomonas aeruginosa, V1
P. morganii IID 602 = assay: as above; type: cell-based; settings: Morganella morganii, IID602
[8] = system: Escherichia coli NIHJ JC-2; assay: as above; type: cell-based; settings: NIHJJC2, Escherichia coli NIHJ JC-2, 10^6 cells/ml
[9] = system: Bacteroides fragilis GM 7000; assay: as above; type: cell-based; settings: Bacteroides fragilis, GM7000
[10] = system: Yersinia enterocolitica IID 981; assay: as above; type: cell-based; settings: Yersinia enterocolitica, IID981
B. fragilis 25285 = assay: as above; type: cell-based; settings: Bacteroides fragilis, 25285
E. coli ML4707 = assay: In vivo antibacterial activity against systemic infection in mice;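 note: ED50 in mg/kg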; settings: Escherichia coli, ML4707, po, 1 h, E. coli ML4707, mice (ICR-S), intraperitoneal infection, oral at 1 hour after infection
Experimental: as §1, §2

[11] = system: Acinetobacter anitratus IID 876; assay: In vitro antibacterial activity, MIC (standard strain); type: cell-based; settings: Acinetobacter calcoaceticus, IID876
[12] = system: B. thetaiotaomicron (0661); assay: as above; type: cell-based; settings: Bacteroides thetaiotaomicron
S. pneumoniae S-4288 [13] = assay: MIC against the infecting strain (Table 2); type: cell-based; settings: Streptococcus pneumoniae, S4288; S. pneumoniae S-4288 (Table 2, part 4)
P. aeruginosa IFO 12689 = assay: In vitro antibacterial activity, MIC (standard strain); type: cell-based; settings: P. aeruginosa IFO 12689, 10^6 cells/ml, standard strain; listed as Exp.7
[14] = system: Serratia marcescens IID 618; assay: as above; type: cell-based; settings: Serratia marcescens IID 618, 10^6 cells/ml
[15] = system: Staphylococcus aureus 209 P; assay: as above; type: cell-based; settings: 10^6 cells/ml

O=C(O)c1cn(C2CC2)c2cc(N3CCNCC3)c(F)cc2c1=O [CFLX, 1-Cyclopropyl-6-fluoro-1,4-dihydro-4-oxo-7-(1-piperazinyl)-quinoline-3-carboxylic acid, reference compound]
MIC [1]: 0.025 µg/mL (≈ 0.0754 µM)
MIC (K. pneumoniae KY(GN)6445; Klebsiella pneumoniae): 0.025 µg/mL (≈ 0.0754 µM)
MIC (B. fragilis 0558): 3.13 µg/mL (≈ 9.45 µM)
MIC (Shigella sonnei IID 969): ≤ 0.006 µg/mL
MIC [2]: 0.05 µg/mL (≈ 0.151 µM)
MIC [3]: ≤ 0.006 µg/mL
MIC (C. ramosum): 3.13 µg/mL (≈ 9.45 µM)
ED50 (S. pneumoniae S-4288 [4]; S4288, po, 1 h): > 100 mg/kg
ED50 (S. aureus Smith): 12.8 mg/kg
ED50 (P. aeruginosa IID 1210): 8 mg/kg
MIC [5]: 0.05 µg/mL (≈ 0.151 µM)
MIC [6]: ≤ 0.006 µg/mL
MIC [7]: 0.2 µg/mL (≈ 0.604 µM)
MIC (P. morganii IID 602): 0.05 µg/mL (≈ 0.151 µM)
MIC [8]: ≤ 0.006 µg/mL
MIC [9]: 3.13 µg/mL (≈ 9.45 µM)
MIC [10]: 0.05 µg/mL (≈ 0.151 µM)
MIC (B. fragilis 25285): 3.13 µg/mL (≈ 9.45 µM)
ED50 (E. coli ML4707; challenge dose 6.0 x 10^6 cfu/mouse (part 1)): 0.67 mg/kg
ED50 (E. coli ML4707; challenge dose 8.3 x 10^6 cfu/mouse (part 2)): 0.75 mg/kg
MIC [11]: 0.025 µg/mL (≈ 0.0754 µM)
MIC [12]: 3.13 µg/mL (≈ 9.45 µM)

CC1CN(c2c(F)cc3c(=O)c(C(=O)O)cn(C4CC4)c3c2Cl)CCN1 (stereo not drawn) [Example 7, 8-Chloro-l-cyclopropyl-6-fluoro-l,4-dihydro-7-(3-methyl-l-piperazinyl)-4-oxoquinoline-3-carboxylic acid]
MIC (K. pneumoniae KY(GN)6445; K. pneumoniae KY(GN)6445, 10^6 cells/ml, standard strain): 0.025 µg/mL (≈ 0.0658 µM)
MIC (S. pneumoniae S-4288 [13]): 0.78 µg/mL (≈ 2.05 µM)
MIC (P. aeruginosa IFO 12689): 0.78 µg/mL (≈ 2.05 µM)
ED50 (S. pneumoniae S-4288 [4]; S4288, S. pneumoniae S-4288, mice (ICR-S), intraperitoneal infection, oral at 1 hour after infection, challenge dose 2.5 x 10^3 cfu/mouse, read-out: ED50): 15.6 mg/kg
MIC [14]: 0.05 µg/mL (≈ 0.132 µM)
MIC [15]: 0.10 µg/mL (≈ 0.263 µM)

— EP0178388A1, “Quinolinecarboxylic acid derivatives” (KYORIN PHARMACEUTICAL CO., LTD., priority 1984, dated 1986)
